Results on 12 compounds are retold here after ChEMBL document CHEMBL1153256, “Unusual stereochemical preferences of decahydroisoquinoline-3-cargoxylic acid competitive NMDA antagonists” (Bioorg Med Chem Lett, 1993).

One test has as its target Glutamate NMDA receptor. Kind of test: Inhibition of [3H]-CGS- 19755 binding to rat brain membrane NMDA receptor.
The species named for another test is Mus musculus. Kind of test: Minimum effective dose to prevent NMDA-induced lethality in mice. In kind it is functional.
The species named for a further test is Rattus norvegicus. Kind of test: Compound was tested for relative potency as NMDA antagonist by determining its ability to inhibit depolarizations induced by 40 uM NMDA in a cortical slice preparation. In kind it is functional.

On to `O=C(O)C1CC2CC(Cc3nnn[nH]3)CCC2CN1` (racemic; form 1), for which the concentration for half-maximal inhibition (IC50) was 3.41 µM at Glutamate NMDA receptor and 4.8 µM in the test filed under Rattus norvegicus. The compound further yielded an MED in the test listed under Mus musculus of 40 mg/kg.

For the compound `O=C(O)C1CC2CC(CP(=O)(O)O)CCC2CN1` (racemic; form 1), the half-inhibitory concentration (IC50) was determined as 0.055 µM on Glutamate NMDA receptor and 0.15 µM in the test filed under Rattus norvegicus. Further, the MED in the test filed under Mus musculus was 1.25 mg/kg.

As for `O=C(O)C1CC2CC(Cc3nnn[nH]3)CCC2CN1` (racemic; form 2), the concentration for half-maximal inhibition (IC50) stood at 0.94 µM on Glutamate NMDA receptor and 1.39 µM in the test listed under Rattus norvegicus. Further, the MED in the test filed under Mus musculus was 2.5 mg/kg.

As to `O=C(O)C1CC2CC(CP(=O)(O)O)CCC2CN1` (racemic; form 2), the IC50 was 0.82 µM at Glutamate NMDA receptor and 1.7 µM in the test filed under Rattus norvegicus. Further, the MED in the test filed under Mus musculus is 2.5 mg/kg.

In the case of `O=C(O)C1CC2CC(Cc3nnn[nH]3)CCC2CN1` (single isomer, unassigned; (+)), the half-maximal inhibitory concentration (IC50) was 22.6 µM at Glutamate NMDA receptor and above 100 µM in the test listed under Rattus norvegicus. The compound also yielded an MED in the test filed under Mus musculus above 160 mg/kg.

With `O=C(O)C1CC2CC(CP(=O)(O)O)CCC2CN1` (single isomer, unassigned; (-)), the IC50 turned out to be 0.025 µM on Glutamate NMDA receptor and 0.22 µM in the test listed under Rattus norvegicus. Moreover, the MED in the test listed under Mus musculus came out at 0.625 mg/kg.

Consider `O=C(O)C1CC2CC(CP(=O)(O)O)CCC2CN1` (stereo in doubt; (+)-1 R), for which the figures for the IC50 on Glutamate NMDA receptor and in the test listed under Rattus norvegicus were 8.4 µM and 33 µM, respectively. This compound returned an MED in the test listed under Mus musculus of 80 mg/kg.

`O=C(O)C1CC2CC(CP(=O)(O)O)CCC2CN1` (stereo in doubt; (+)-3 S) returned an IC50 on Glutamate NMDA receptor of 8.7 µM.

Turning to `O=C(O)C1CC2CC(Cc3nnn[nH]3)CCC2CN1` (stereo in doubt; (+)-4 S), the figures for the IC50 on Glutamate NMDA receptor and in the test listed under Rattus norvegicus were 5.16 µM and 28 µM, respectively.

Take `O=C(O)C1CC2CC(Cc3nnn[nH]3)CCC2CN1` (stereo in doubt; (-)-2 S): the IC50 at Glutamate NMDA receptor is 0.42 µM; in the test filed under Rattus norvegicus, 0.82 µM. The compound further registered an MED in the test filed under Mus musculus of 1.25 mg/kg.

On to `O=C(O)C1CC2CC(CP(=O)(O)O)CCC2CN1` (stereo in doubt; (-)-3 R), for which the IC50 on Glutamate NMDA receptor was found to be 0.67 µM.

For the compound `O=C(O)C1CC2CC(Cc3nnn[nH]3)CCC2CN1` (stereo in doubt; (-)-4 R), the IC50 amounted to 3.32 µM at Glutamate NMDA receptor and 6.2 µM in the test filed under Rattus norvegicus.
